# Measurements taken from US20070082017A1, “Lipid compositions and methods of use” (priority 2004, published 2007).
# System: patients with dry eye symptoms
# Experiment: Clinical use of lipid composition applied to the eyelid margin for dry eye
# Type: in vivo, human
# Settings: Patient No. 4; 1 percent non-preserved, two weeks
# Text: These patients were afflicted with meibomian gland dysfunction, various forms of dry eye syndrome, abnormal lids due to chemical burns, Stevens-Johnson syndrome, ocular pemphigoid, etc.
structure (smiles),measurement,value
C[C@H]1C[C@@H]2[C@H]([C@@H](O)C[C@@]3(C)[C@H]2CC[C@]3(O)C(=O)CO)[C@@]2(C)C=CC(=O)C=C12 [methyl prednisolone],improvement of symptoms,50%
